These are literature values, as cited in patent US4533546A, “Antiinflammatory analgesic gelled ointments” (Lederle (Japan), Ltd., priority 1983, dated 1985).

The test system of one data set is digestive organs. The conditions noted are these: oral, background statement in words.
For data set [1] the following is noted: in water and various pharmaceutically acceptable solvents; in words.

For `O=C(O)Cc1ccc(-c2ccccc2)cc1` [4-biphenylylacetic acid], the side-effects result in the data set on digestive organs is on record as “side-effects on the digestive organs”. Further, the solubility result in data set [1] was “insoluble or only sparingly soluble in water and various pharmaceutically acceptable solvents”. Regarding `CC(C)Cc1ccc(CC(=O)O)cc1` [ibufenac], the side-effects entry with digestive organs was “side-effects on the digestive organs”. With `CC(C)Cc1ccc(C(C)C(=O)O)cc1` (centres unmarked) [ibuprofen], in the data set on digestive organs, the side-effects entry was “side-effects on the digestive organs”. Regarding `COc1ccc2c(c1)c(CC(=O)O)c(C)n2C(=O)c1ccc(Cl)cc1` [indomethacin], in the data set with digestive organs, the side-effects entry is on record as “side-effects on the digestive organs”.
